Like-named read-outs stand apart in the source and are kept apart here.
Experiments:
[1] = molecular target: histone deacetylase (HDAC), HeLa nuclear extracts; assay: In vitro assay for inhibition of histone deacetylase; assay type: biochemical; parameters: key: pIC50 = negative log of IC50; conditions: [3H]acetylated histone H4 peptide substrate, 30 min
Description: The in vitro assay for inhibition of histone deacetylase (see example C.1) measures the inhibition of HDAC enzymatic activity obtained with the compounds of formula (I).
HeLa nuclear extracts (supplier: Biomol) were incubated at 60 μg/ml with 2×10^−8 M of radiolabeled peptide substrate. As a substrate for measuring HDAC activity a synthetic peptide, i.e. the amino acids 14-21 of histone H4, was used. The substrate is biotinylated at the NH2-terminal part with a 6-aminohexanoic acid spacer, and is protected at the COOH-terminal part by an amide group and specifically [^3H]acetylated at lysine 16. The substrate, biotin-(6-aminohexanoic)Gly-Ala-([^3H]-acetyl-Lys-Arg-His-Arg-Lys-Val-NH2), was added in a buffer containing 25 mM Hepes, 1 M sucrose, 0.1 mg/ml BSA and 0.01% Triton X-100 at pH 7.4. After 30 min the deacetylation reaction was terminated by the addition of HCl and acetic acid. (final concentration 0.035 mM and 3.8 mM respectively). After stopping the reaction, the free ^3H-acetate was extracted with ethylacetate. After mixing and centrifugation, the radioactivity in an aliquot of the upper (organic) phase was counted in a β-counter.
For each experiment, controls (containing HeLa nuclear extract and DMSO without compound), a blank incubation (containing DMSO but no HeLa nuclear extract or compound) and samples (containing compound dissolved in DMSO and HeLa nuclear extract) were run in parallel. In first instance, compounds were tested at a concentration of 10^−5M. […] In each test the blank value was substracted from both the control and the sample values. The control sample represented 100% of substrate deactylation. For each sample the radioactivity was expressed as a percentage of the mean value of the controls. […] Herein the effects of test compounds are expressed as pIC50 (the negative log value of the IC50-value).

[2] = system: A2780 ovarian carcinoma cells; assay: Determination of antiproliferative activity on A2780 cells (MTT); assay type: cell-based, human; conditions: four days of incubation; for IC50: Homo sapiens, 96 h, read-out: Cellular activity pIC50 (converted)
Description: Cellular activity of the compounds of formula (I) was determined on A2780 tumour cells using a colorimetric assay for cell toxicity or survival (Mosmann Tim, Journal of Immunological Methods 65: 55-63, 1983)(see example C.2).
All compounds tested were dissolved in DMSO and further dilutions were made in culture medium. Final DMSO concentrations never exceeded 0.1% (v/v) in cell proliferation assays. Controls contained A2780 cells and DMSO without compound and blanks contained DMSO but no cells. MTT was dissolved at 5 mg/ml in PBS. A glycine buffer comprised of 0.1 M glycine and 0.1 M NaCl buffered to pH 10.5 with NaOH (1 N) was prepared (all reagents were from Merck).
The human A2780 ovarian carcinoma cells (a kind gift from Dr. T. C. Hamilton [Fox Chase Cancer Centre, Pennsylvania, USA]) were cultured in RPMI 1640 medium supplemented with 2 mM L-glutamine, 50 μg/ml gentamicin and 10% fetal calf serum. Cells were routinely kept as monolayer cultures at 37° C. in a humidified 5% CO2 atmosphere. Cells were passaged once a week using a trypsin/EDTA solution at a split ratio of 1:40. All media and supplements were obtained from Life Technologies. Cells were free of mycoplasma contamination as determined using the Gen-Probe Mycoplasma Tissue Culture kit (supplier: BioMérieux).
Cells were seeded in NUNC™ 96-well culture plates (Supplier: Life Technologies) and allowed to adhere to the plastic overnight. Densities used for plating were 1500 cells per well in a total volume of 200 μl medium. After cell adhesion to the plates, medium was changed and drugs and/or solvents were added to a final volume of 200 μl. Following four days of incubation, medium was replaced by 200 μl fresh medium and cell density and viability was assessed using an MTT-based assay. To each well, 25 μl MTT solution was added and the cells were further incubated for 2 hours at 37° C. The medium was then carefully aspirated and the blue MTT-formazan product was solubilized by addition of 25 μl glycine buffer followed by 100 μl of DMSO. […] Within an experiment, the results for each experimental condition are the mean of 3 replicate wells. For initial screening purposes, compounds were tested at a single fixed concentration of 10^−6M. For active compounds, the experiments were repeated to establish full concentration-response curves. For each experiment, controls (containing no drug) and a blank incubation (containing no cells or drugs) were run in parallel. The blank value was subtracted from all control and sample values. For each sample, the mean value for cell growth (in absorbance units) was expressed as a percentage of the mean value for cell growth of the control. […] Herein the effects of test compounds are expressed as pIC50 (the negative log value of the IC50-value).

[3] = Kinetic solubility in aqueous media (nephelometry); assay type: physicochemical; conditions: phosphate citrate buffer pH 7.4, turbidity of three dilution steps
Description: Kinetic solubility in aqueous media measures the ability of a compound to stay in aqueous solution upon dilution (see example C.3).
DMSO-stock solutions are diluted with a single aqueous buffer solvent in 3 consecutive steps. For every dilution turbidity is measured with a nephelometer.
In the first dilution step, 10 μl of a concentrated stock-solution of the active compound, solubilized in DMSO (5 mM), was added to 100 μl phosphate citrate buffer pH 7.4 and mixed. In the second dilution step, an aliquot (20 μl) of the first dilution step was further dispensed in 100 μl phosphate citrate buffer pH 7.4 and mixed. Finally, in the third dilution step, a sample (20 μl) of the second dilution step was further diluted in 100 μl phosphate citrate buffer pH 7.4 and mixed. All dilutions were performed in 96-well plates. Immediately after the last dilution step the turbidity of the three consecutive dilution steps were measured with a nephelometer. Dilution was done in triplicate for each compound to exclude occasional errors. Based on the turbidity measurements a ranking is performed into 3 classes. Compounds with high solubility obtained a score of 3 and for this compounds the first dilution is clear. Compounds with medium solubility obtained a score of 2. For these compounds the first dilution is unclear and the second dilution is clear. […] The solubility of 9 compounds was measured.

[4] = not given; remark: listed apart in the source

Structure (SMILES) | % metabolism (human, 15 min, 5 μM) [%] | Enzyme activity pIC50 [1] | IC50 [2] [nM] | Solubility Score [3] | melting point [4] [°C] | Cellular activity pIC50 [2] | % metabolism (15 min incubation, compound 5 μM, microsomes 1 mg/ml, NADPH-generating system) [%]
COc1cc(N)c(Cl)cc1C(=O)NC1CCN(CCCOc2ccc(F)cc2)CC1OC (stereo not shown) [Cisapride] | 45 |  |  |  |  |  | 
O=C(CS)Nc1ccc(N2CCC3(CC2)C(=O)NCN3c2ccccc2)cc1 [Co. No. 1] |  | <5 | > 10000 | 1 (Compounds with low solubility obtained a score of 1 and for these compounds both the first and the second dilution are unclear) |  |  | 
CN(C)S(=O)(=O)N1CCN(c2ncc(C(=O)NO)cn2)CC1 [Co. No. 2] |  | 6.615 | 2920 | 3 (Compounds with high solubility obtained a score of 3 and for this compounds the first dilution is clear) | > 260 |  | 
NS(=O)(=O)N1CCN(c2ncc(C(=O)NO)cn2)CC1 [Co. No. 3] |  | 6.881 | > 10000 | 3 (Compounds with high solubility obtained a score of 3 and for this compounds the first dilution is clear) | 212 |  | 
CN(C)S(=O)(=O)NCC1CCN(c2ncc(C(=O)NO)cn2)CC1 [Co. No. 4] |  | 7.27 | 2960 | 3 (Compounds with high solubility obtained a score of 3 and for this compounds the first dilution is clear) | 182 |  | 
O=C(NO)c1cnc(N2CCN(C(=O)C(c3ccccc3)c3ccccc3)CC2)nc1 [Co. No. 5] |  | 7.096 | 659 |  |  |  | 
O=C(NO)c1cnc(N2CCN(C(=O)c3ccc4ccccc4c3)CC2)nc1 [Co. No. 6] |  | 7.104 | 1490 | 3 (Compounds with high solubility obtained a score of 3 and for this compounds the first dilution is clear) | 130 |  | 
CCCCCCCCS(=O)(=O)N1CCN(c2ccc(C(=O)NO)cc2)CC1 [compound 18] |  | 6.173 |  | 1 (Compounds with low solubility obtained a score of 1 and for these compounds both the first and the second dilution are unclear) |  | 6.166 | 
O=C(NO)c1cnc(N2CCN(C(=O)c3cccc4ccccc34)CC2)nc1 [compound 24] |  | 7.073 |  |  |  | 6.084 | 
CCCO [propanol] |  |  |  |  |  |  | 25

Reference: patent US9150560B2, “Inhibitors of histone deacetylase” (Janssen Pharmaceutica, N.V., priority 2002, dated 2015)
